Measured values published in patent US12721342B2, “Agricultural composition of indoleacetic acid having increased photostability, process for the production and use thereof” (TOTAL BIOTECNOLOGIA INDÚSTRIA E COMÉRCIO S/A, priority 2021, dated 2026).

What was measured:
[1] = depending on the wavelength and intensity; cited from earlier work
[2] = Photostability to UV light, first assay (IAA concentration by Salkwolski reagent); format: physicochemical
Procedure: For validating the formulation that guarantees photostability of the indoleacetic acid phytohormone, two procedures were carried out. In the first assay, the following was compared: i) synthetic IAA with water (with no protection from melanoidins); ii) synthetic IAA with the same culture medium used in the biological IAA production process of the present invention and iii) biological IAA; all samples being subjected to the sterilization process at 121° C. for approximately 1 hour, as claimed for the stabilization of indole compounds due to the production of melanoidins via Maillard reaction. After the period of time required for stabilization, IAA concentrations were assessed using Salkwolski reagent according to the methodology proposed by Glickmann and Dessaux (1994).

Row | photodegradation ([2]; 1 hour of exposure to UV light, samples sterilized at 121° C. for approximately 1 hour) | degradation by UV light (in words) ([2]; after 4 hours of exposure to UV light) | Compound | reduction of IAA by light decomposition [1]
1 |  |  | O=C(O)Cc1c[nH]c2ccccc12 [IAA, indoleacetic acid] | up to 90%
2 | 74.5% | fully degraded | O=C(O)Cc1c[nH]c2ccccc12 [indoleacetic acid] | 
